These results are taken from PMC6036575, “Reincarnation of Bacteriocins From the Lactobacillus Pangenomic Graveyard” (Frontiers in Microbiology, 2018).

Entries after “also recorded” stand apart in the source; their conditions may differ.

The test system of experiment [1] is L. mali DSM 20444. As to the kind of experiment: Well diffusion assay, spectrum of bacteriocin activity. The class given is cell-based. The note with it: 50 μl filtered supernatant of E. coli Tuner (DE3) transformants encoding the pediocin PA-1 leader, 7 mm wells, triplicate. The protocol: (§1) Bacteriocin activity was determined using well diffusion assays (WDAs). For Tuner^TM (DE3) E. coli transformants both the cell supernatant and the cell lysates were analyzed for antimicrobial activity, whilst only the supernatants were analyzed for L. paracasei NFBC338 cells. Supernatant was isolated by centrifugation of the liquid cultures at 4000 RCF for 15 min, these supernatants were then filtered using 0.20 μm membrane filters. For cell lysates, cell pellets were resuspended in 5 ml of phosphate-buffered saline (PBS), cells were lysed by sonication using a MSE Soniprep 150 (MSE, London, UK). Lysates were subsequently centrifuged at 4000 RCF for 15 min and the resulting supernatants were filtered using 0.20 μm membrane filters. For the indicator plates, 50 μl of an overnight culture of the indicator strain was added to the appropriate media containing 1% agar. Plates were cooled and 7 mm wells were bored in the agar. 50 μl of the cell supernatants/lysates being tested were added to each well and plates were refrigerated for 2 h prior to incubation under the appropriate conditions. WDAs were carried out in triplicate for each bacteriocin.
(§2) E. coli Tuner^TM (DE3) cells transformed with the newly constructed plasmids were grown in LB supplemented with glucose to maintain a low-copy number and bacteriocin expression was induced by co-incubation of the clones with 50 μM IPTG for 3 h. WDAs were used to identify bacteriocin activity from the bacterial supernatants and cell lysates. Bacteriocins were exclusively found in the bacterial supernatant. Antimicrobial activity was lower in cases where the native leader of the bacteriocin sequence was used; with only four of the nine strains displaying zones of inhibition against a sensitive indicator (pediocin 20336a has an identical leader to pediocin PA-1). For expression in L. paracasei NFBC338, cells were transformed by electroporation with the bacteriocin-containing pNZ44 vectors. Positive transformants were grown overnight and the neutralized cell free supernatant was used to identify bacteriocin production in WDAs.
(§3) The spectrum of activity was determined using WDAs against 32 indicator strains for bacteriocins produced by the E. coli transformants encoding the pediocin leader (Table 2). Despite being of the same class of bacteriocins, these novel antimicrobials display a varying spectrum of activity. […] Many of these bacteriocins, however, can inhibit a wide range of Gram positive bacteria including potential pathogens such as Enterococcus faecalis. As with most class IIa bacteriocins, these also display potent anti-listerial activity.
Background: A growth-free zone around the sample is the usual read-out of agar diffusion tests.

The subject of experiment [2] is 32 indicator strains. The experiment is described as follows: Well diffusion assays against the panel of 32 indicator strains. The class given is cell-based. The following applies: for antimicrobial activity / spectrum, in words: crude supernatant from the E. coli heterologous host, pediocin PA-1 leader; for Total no. of strains inhibited: of 32 indicator strains, supernatant of E. coli transformants encoding the pediocin leader. How it is done: as §1, §2, §3

The test system of experiment [3] is E. saccharolyticus DPC 4902. As to the kind of experiment: Well diffusion assay, spectrum of bacteriocin activity. The class given is cell-based. The note with it: 50 μl filtered supernatant of E. coli Tuner (DE3) transformants encoding the pediocin PA-1 leader, 7 mm wells, triplicate. The protocol: as §1, §2, §3
For experiment [4], the system named is E.mundtii LMG 10748. The experiment is described as above. The note with it: 50 μl filtered supernatant of E. coli Tuner (DE3) transformants encoding the pediocin PA-1 leader, 7 mm wells, triplicate. The class given is cell-based. The protocol: as §1, §2, §3
Experiment [5] has as its system Enterococcus faecalis LMG 7397. The experiment is described as above. The class given is cell-based. The following applies: 50 μl filtered supernatant of E. coli Tuner (DE3) transformants encoding the pediocin PA-1 leader, 7 mm wells, 1% agar, triplicate. How it is done:
as §1, §2, §3

For experiment [6], the system named is L. apodemi DSM 16654. The experiment is described as above. The class given is cell-based. The note with it: 50 μl filtered supernatant of E. coli Tuner (DE3) transformants encoding the pediocin PA-1 leader, 7 mm wells, triplicate. The protocol:
as §1, §2, §3

The subject of experiment [7] is Li. monocytogenes DPC 6894. The description is as above. The class given is cell-based. The following applies: 50 μl filtered supernatant of E. coli Tuner (DE3) transformants encoding the pediocin PA-1 leader, 7 mm wells, triplicate. The protocol: as §1, §2, §3
Experiment [8] relates to Li. monocytogenes WSL 1416. The experiment is described as above. The class given is cell-based. The note with it: 50 μl filtered supernatant of E. coli Tuner (DE3) transformants encoding the pediocin PA-1 leader, 7 mm wells, triplicate. The protocol:
as §1, §2, §3

Experiment [9] deals with Listeria innocua DPC 3572. The description is as above. The class given is cell-based. The following applies: 50 μl filtered supernatant of E. coli Tuner (DE3) transformants encoding the pediocin PA-1 leader, 7 mm wells, triplicate. The protocol:
as §1, §2, §3

Experiment [10] deals with P. ethanolidurans DSM 22301. The description is as above. The class given is cell-based. The following applies: 50 μl filtered supernatant of E. coli Tuner (DE3) transformants encoding the pediocin PA-1 leader, 7 mm wells, triplicate. How it is done: as §1, §2, §3
Experiment [11] concerns L. innocua DPC3572. As to the kind of experiment: Bacteriocin activity (BU/ml), dilution series in well diffusion assay. The class given is cell-based, Listeria innocua. The following applies: for Bacteriocin Activity (BU/ml) vs. L. innocua DPC3572: inverse of the highest dilution of bacterial supernatant showing activity in a well diffusion assay. The protocol:
as §1, §2

Experiment [12] concerns L. amylophilus DSM 20509. As to the kind of experiment: Well diffusion assay, spectrum of bacteriocin activity. The class given is cell-based. The note with it: 50 μl filtered supernatant of E. coli Tuner (DE3) transformants encoding the pediocin PA-1 leader, 7 mm wells, triplicate. How it is done:
as §1, §2, §3

In experiment [13] the test system is Li. monocytogenes DPC 6893. The experiment is described as above. The class given is cell-based. The note with it: 50 μl filtered supernatant of E. coli Tuner (DE3) transformants encoding the pediocin PA-1 leader, 7 mm wells, triplicate. How it is done:
as §1, §2, §3

The test system of experiment [14] is P. clausenii DSM 14800. Described as above. The note with it: 50 μl filtered supernatant of E. coli Tuner (DE3) transformants encoding the pediocin PA-1 leader, 7 mm wells, triplicate. The class given is cell-based. How it is done:
as §1, §2, §3

The subject of experiment [15] is Pediococcus stilesii DSM 18001. Described as above. The class given is cell-based. The note with it: 50 μl filtered supernatant of E. coli Tuner (DE3) transformants encoding the pediocin PA-1 leader, 7 mm wells, triplicate. The protocol:
as §1, §2, §3

Experiment [16] has as its system L. crustorum JCM 15951. The experiment is described as above. The class given is cell-based. The note with it: 50 μl filtered supernatant of E. coli Tuner (DE3) transformants encoding the pediocin PA-1 leader, 7 mm wells, triplicate. How it is done:
as §1, §2, §3

Experiment [17] concerns L. nodensis DSM 16982. Described as above. The class given is cell-based. The note with it: 50 μl filtered supernatant of E. coli Tuner (DE3) transformants encoding the pediocin PA-1 leader, 7 mm wells, triplicate. How it is done: as §1, §2, §3
Experiment [18] relates to L. plantarum DSM 13273. The experiment is described as above. The class given is cell-based. The note with it: 50 μl filtered supernatant of E. coli Tuner (DE3) transformants encoding the pediocin PA-1 leader, 7 mm wells, triplicate. How it is done: as §1, §2, §3
Setting [19] is: produced by E. coli Tuner (DE3).
[20] abbreviates: produced by L. paracasei NFBC338, neutralized cell free supernatant.

With “—-KYYGNGLHIPKHGKPYINWGQAIQSIGKISYHGWVNGITSGAAGVGRH [Acidicin (Acd), novel pediocin-like class IIa bacteriocin encoded by L. acidipiscis DSM 15836, heterologously expressed]”, the “radius of the zone of inhibition” value in experiment [1] came to 1.50 ± 0.41 millimeters. In [2], the “antimicrobial activity / spectrum, in words” value is listed as “displayed activity exclusively against L. mali” and the “Total no. of strains inhibited” value is 1.
Regarding “–KYYGNGVSCG-KHTCKVNWGQAWNESVNRWGNSWVNGLTGLRQH— (disulfide) [Futcin (Fut), novel pediocin-like class IIa bacteriocin encoded by L. futsaii JCM 17355, heterologously expressed]”, the “radius of the zone of inhibition” value is reported as 2 ± 0 millimeters in [3]; 1.83 ± 0.24 millimeters in [4]; 1.67 ± 0.47 millimeters in experiment [5]; 0.33 ± 0.47 millimeters in experiment [6]; 2.17 ± 0.85 millimeters in experiment [1]; 0.83 ± 0.24 millimeters in experiment [7]. Besides, the “radius of the zone of inhibition” value was 1 ± 0 millimeters in [8], 2.00 ± 0 millimeters in experiment [9] and 3 ± 0 millimeters in experiment [10]. Further, the “Total no. of strains inhibited” value in experiment [2] (listed as Fut) was 9; in [2] (listed as futcin) it was “nine”. Further, the “Bacteriocin Activity (BU/ml) vs. L. innocua DPC3572” value in experiment [11] (setting [19]) is listed as “+ (+ = 0 – 160 BU/ml)”.
Take “–KYYGNGVSCG-KHSCSVDWGKATTCTINNSAMAWATSGHQGNHKC—- (bicyclic or more) [Rennicin B (RenB), novel pediocin-like class IIa bacteriocin encoded by L. rennini DSM 20253, heterologously expressed]”: in experiment [2], the “antimicrobial activity / spectrum, in words” value is reported as “failed to display antimicrobial activity; also recorded: did not display activity” and the “Total no. of strains inhibited” value worked out at 0. For the same substance, in [11] (expressed in L. paracasei NFBC338), the “level of activity when expressed in L. paracasei NFBC338, in words” value was “equal levels of activity compared to rennicin A”. Moreover, in experiment [11] (setting [20]), the “Bacteriocin Activity (BU/ml) vs. L. innocua DPC3572” value is “+ (+ = 0 – 160 BU/ml)”.
For “–KYYGNGVHCG-KKTCYVDWGQATASIGKIIVNGWTQHGPWAHR———- (disulfide) [Penocin A (PenA), previously characterized class IIa bacteriocin, here encoded by P. pentosaceus DSM 20336, heterologously expressed]”, the “radius of the zone of inhibition” value in [3] was determined as 1.33 ± 0.94 millimeters; in experiment [4], 1.33 ± 0.94 millimeters; in experiment [5] it was 0.67 ± 0.47 millimeters; in experiment [12], 0.67 ± 0.47 millimeters; in experiment [1], 1.50 ± 1.08 millimeters; in [13], 0.67 ± 0.47 millimeters. Moreover, the “radius of the zone of inhibition” value is on record as 0.67 ± 0.47 millimeters in [7]; 0.67 ± 0.47 millimeters in experiment [8]; 2.50 ± 0.41 millimeters in experiment [9]; 1 ± 0.82 millimeters in experiment [14]; 2 ± 1.41 millimeters in [10]; 0.67 ± 0.47 millimeters in experiment [15]. For the same substance, in experiment [2], the “Total no. of strains inhibited” value was 12. For the same substance, the “Bacteriocin Activity (BU/ml) vs. L. innocua DPC3572” value in [11] (setting [19]) is “++ (++ = 320 – 2560 BU/ml)”; in [11] (setting [20]) it was “+ (+ = 0 – 160 BU/ml)”.
For “SRYYGNGITCG-KHKCTVNWGQAWTCGVNRLANFGH–G————–NC— (bicyclic or more) [Agilicin (Agl), novel pediocin-like class IIa bacteriocin encoded by L. agilis DSM 20509, heterologously expressed]”, the “radius of the zone of inhibition” value in experiment [3] amounted to 3.33 ± 0.47 millimeters; in experiment [4], 3 ± 0 millimeters; in experiment [5] it was 2.17 ± 0.24 millimeters; in experiment [6] it was 2.67 ± 0.47 millimeters; in experiment [16], 0.33 ± 0.47 millimeters; in experiment [1] it was 4.50 ± 0.41 millimeters. Also, the “radius of the zone of inhibition” value came to 3.50 ± 0.71 millimeters in [17]; 0.33 ± 0.47 millimeters in experiment [18]; 2 ± 0 millimeters in [13]; 4 ± 0 millimeters in experiment [7]; 2 ± 0.82 millimeters in experiment [8]; 5 ± 0 millimeters in experiment [9]. The “radius of the zone of inhibition” value in [14] came to 0.67 ± 0.47 millimeters; in experiment [10] it was 3.33 ± 0.47 millimeters. Besides, the “Total no. of strains inhibited” value in [2] amounted to 14. Moreover, the “Bacteriocin Activity (BU/ml) vs. L. innocua DPC3572” value in experiment [11] (setting [19]) and in experiment [11] (setting [20]) was “++ (++ = 320 – 2560 BU/ml)” in each case.
Consider “–KYYGNGVSCS-KHSCSVDWGKALTCTINNGAMAWTTGGHQGNHKC—- (bicyclic or more) [Rennicin A (RenA), novel pediocin-like class IIa bacteriocin encoded by L. rennini DSM 20253, heterologously expressed]”, for which the “radius of the zone of inhibition” value is recorded as 2.33 ± 0.47 millimeters in [3]; 3.33 ± 0.47 millimeters in experiment [4]; 3 ± 0 millimeters in experiment [5]; 0.67 ± 0.47 millimeters in experiment [6]; 1 ± 0 millimeters in [1]; 2 ± 0 millimeters in [13]. Moreover, the “radius of the zone of inhibition” value is 2 ± 1.41 millimeters in experiment [7], 2.67 ± 0.47 millimeters in [8], 6.33 ± 0.94 millimeters in experiment [9] and 1.50 ± 0.41 millimeters in experiment [10]. In experiment [2], the “Total no. of strains inhibited” value is 10. Moreover, the “Bacteriocin Activity (BU/ml) vs. L. innocua DPC3572” value in [11] (setting [19]) and in experiment [11] (setting [20]) was “+ (+ = 0 – 160 BU/ml)” in each case.
Turning to “–KNYGNGVYCTKKHGYKVDWGQAWSIIGNNSAANSTTRGAAGWKSK—- [Aquaticin (Aqu), novel pediocin-like class IIa bacteriocin encoded by L. aquaticus DSM 21051; peptide not identified by MALDI-TOF]”, the “antimicrobial activity / spectrum, in words” value is on record as “failed to display antimicrobial activity” in experiment [2] (listed as Aquaticin) and “activity was not seen” in experiment [2] (listed as aquaticin). Further, in [2], the “Total no. of strains inhibited” value is on record as 0.
